Experiments:
HeLa cells = test: MTT cell viability assay, HeLa; assay type: cell-based; settings: Homo sapiens, 72 h
Protocol: Cell viability was assessed by using 3-(4,5-dimethylthiazol-2-y1)-2,5-diphenyltetrazolium bromide (MTT) assay (Sigma-Aldrich, Milan, Italy), as already reported. In brief, MCF-7 and HeLa cells (2 × 10^4 cells/well) were seeded in a 48-well plate and grown in complete medium overnight, then they were switched into DMEM-F12 supplemented with 2% FBS and treated with increasing concentrations (1, 10, 50, 75, and 100 µM) of different oxazolidin-2-ones derivatives (OA-OI) or doxorubicin for 72 h. Untreated cells were added with the vehicle (DMSO) and used as a control. After treatment, fresh MTT reagent (used at a final concentration of 0.5 mg/mL) was added, prolonging incubation for 2 h according to the manufacturer’s protocol. Absorbance at 570 nm was measured in each well, including controls, and every experiment was carried out in triplicate.
(§1) For each sample, mean absorbance was expressed as a percentage of the control and plotted vs. drug concentration, in order to determine the IC50 value (i.e., drug concentration able to decrease cell viability by 50% with respect to the control) for each cell line, generating a sigmoidal dose–response curve by the use of GraphPad Prism 7 software (GraphPad Inc., San Diego, CA, USA). Mean values and standard deviations (SD) of three independent experiments carried out in triplicate were reported. […]

MCF-7 cells = test: MTT cell viability assay, MCF-7; assay type: cell-based; settings: Homo sapiens, MCF7, 72 h
Protocol: Cell viability was assessed by using 3-(4,5-dimethylthiazol-2-y1)-2,5-diphenyltetrazolium bromide (MTT) assay (Sigma-Aldrich, Milan, Italy), as already reported. […] Untreated cells were added with the vehicle (DMSO) and used as a control. After treatment, fresh MTT reagent (used at a final concentration of 0.5 mg/mL) was added, prolonging incubation for 2 h according to the manufacturer’s protocol. Absorbance at 570 nm was measured in each well, including controls, and every experiment was carried out in triplicate.
as §1

MCF-10A cells = test: MTT cell viability assay, MCF-10A; assay type: cell-based, human; settings: Homo sapiens, MCF-10A, 72 h

| Structure (SMILES) | IC50 (HeLa cells) [µM] | IC50 (MCF-7 cells) [µM] | IC50 (MCF-10A cells) [µM] |
| --- | --- | --- | --- |
| CCCCN1C(=O)O/C(=C/C(=O)N2CCOCC2)C1(C)CC (stereo not drawn) [OH] | 54.2 | 92.9 | 319 |
| CCCCN1C(=O)O/C(=C/C(=O)N2CCOCC2)C12CCCCC2 [OD] | 154 | 338 | 506 |

The next lines start with results.

| IC50 (HeLa cells) [µM] | IC50 (MCF-7 cells) [µM] | Structure (SMILES) | IC50 (MCF-10A cells) [µM] |
| --- | --- | --- | --- |
| 159 | 409 | CC1(C)/C(=C\C(=O)N2CCOCC2)OC(=O)N1Cc1ccccc1 [OF] | 718 |
| 3.61 | 4.04 | COc1cccc2c1C(=O)c1c(O)c3c(c(O)c1C2=O)C[C@@](O)(C(=O)CO)C[C@@H]3O[C@H]1C[C@H](N)[C@H](O)[C@H](C)O1 [DOX, doxorubicin, reference compound] | 31.8 |
| 52.5 | 56.9 | CC1(C)/C(=C\C(=O)N2CCCCC2)OC(=O)N1Cc1ccccc1 [OA] | 414 |
